Results reported in patent US6413530B1, “Pesticidal peptides” (priority 1999, dated 2002).
Where two headings read alike, the source gives them in different places. Where a SMILES comes first, the peptide text is derived from it. Where no end group is shown, it is not given here. [ ]: non-standard residue; d: D form.

Experiments:
mosquito larvae = format: in vivo; details: newly hatched larvae on autoclaved yeast 1 mg/ml plus peptide, microtiter plates, 7 days
Procedure: Preferably, the subject peptides have an LD50 against mosquito larvae of less than 3.0 μmole/ml. More preferably, the peptides have an LD50 of less than […], and, most preferably, the peptides have an LD50 of less than 1.0 μmole/ml. As used herein, “LD50” refers to a lethal dose of a peptide able to cause 50% mortality of larvae maintained on a diet of 1 mg/ml autoclaved yeast supplemented with the pesticidal polypeptide. (Borovsky, Dov, and Farida Mahmood [1995] Regulatory Peptides 57:273-281).
TMOF can traverse the gut epithelium, enter the hemolymph and bind a gut receptor (Borovsky, D. and F. Mahmood (1995) “Feeding the mosquito Aedes aegypti with TMOF and its analogs; effect on trypsin biosynthesis and egg development,” Regulatory Peptides 57:273-281.; Borovsky et al. (1994) “Characterization and localization of mosquito-gut receptors for trypsin modulating oostatic factor using complementary peptide immunochemistry” FASEB J. 8:350-355.). This characteristic permits the testing of TMOF and its analogues by feeding them to mosquito and other pest larvae. To find out if truncated TMOF peptides have an effect on larval growth and development, a series of peptides were synthesized and tested by feeding them to mosquito larvae at concentrations of 0 to 5.0 mg/ml (Table 2). Individual, newly hatched Aedes aegypti larvae were maintained in separate microtiter plate wells on a diet of autoclaved yeast (1 mg/ml). The diet was supplemented with TMOF peptides (Table 2). An identical number of larvae maintained on yeast served as a control. […] All control groups survived and larval growth and development was normal. Since larvae swallow only a small portion of the yeast particles adsorbed the peptides, it is assumed that approximately 1 to 20 ng are taken orally at the high concentrations.

[1] = test system: fourth instar H. virescens; test: Feeding TMOF analogues to fourth instar H. virescens: larval weight; format: in vivo, Heliothis virescens; details: for Weight Gain / Weight mg ± S.E.M. End: fourth instar larvae; for Weight Gain: 0.8 μg analog for 5 days; for Weight mg ± S.E.M. End: synthetic food and 0.8 μg analog for 5 days; for reduction in larval weight: fourth instar larvae fed analogue peptides for 5 days
Procedure: (§1) Individual first instar and fourth instar larvae of H. virescens were maintained in separate plastic cups and were fed on artificial diet blocks on which different concentrations of TMOF (0 to 1.6 mg) were adsorbed. Larvae were fed for 5 to 14 days and larval weight and trypsin activity were measured at the end of the experimental periods. […] When first instar larvae were fed for 14 days, an 18% and 26% reduction in weight was observed when analogues 15 and 14 were used (Table 4).

trypsin biosynthesis = test: Trypsin biosynthesis in guts of fourth instar H. virescens fed TMOF analogues ([3H]DFP); format: in vivo, Heliothis virescens; details: for Trypsin μg ± S.E.M.: guts removed after 5 days feeding 0.8 μg analog, incubated with [3H]DFP; for Inhibition (% ± S.E.M.) of trypsin: versus control, after 5 days feeding 0.8 μg analog; for reduction in trypsin biosynthesis: fourth instar larvae fed analogue peptides for 5 days
Procedure: as §1

[2] = test system: First instar larvae of H. virescens; test: Feeding of first instar H. virescens on TMOF analogs for 14 days; format: in vivo, Heliothis virescens; details: for Number of Dead Larvae / Weight (mg) ± S.E.M. / Weight Reduction (%) ± S.E.M.: first instar larvae, 1.6 μg analog, 14 days; for Weight Reduction (%) ± S.E.M.: versus control; for reduction in weight: first instar larvae fed for 14 days
Procedure: as §1

Molecule: APA [Compound 28]
- LD50 ± S.E.M. (mosquito larvae; right half of Table 2): 1.0 ± 0.07 Mm

Molecule: YDPAF [Compound 3, YDPAF]
- LD50 ± S.E.M. (mosquito larvae; left half of Table 2): 0.33 ± 0.2 mM

Molecule: YDPAA [Compound 19, YDPAA]
- LD50 ± S.E.M. (mosquito larvae; left half of Table 2): 1.6 ± 0.13 mM

Molecule: YDPAPPPPPP [Compound 1, YDPAP6, reference compound]
- LD50 ± S.E.M. (mosquito larvae; left half of Table 2): 0.2 ± 0.02 mM

Molecule: YDPAP [Compound 12, YDPAP, reference compound]
- LD50 ± S.E.M. (mosquito larvae; left half of Table 2): 1.64 ± 0.03 mM

Molecule: YEPAP [Compound 4, YEPAP]
- LD50 ± S.E.M. (mosquito larvae; left half of Table 2): 0.35 ± 0.02 mM

Molecule: YDF [Compound 27]
- LD50 ± S.E.M. (mosquito larvae; right half of Table 2): 0.97 ± 0.11 Mm

Molecule: ADPAP [Compound 21, ADPAP]
- LD50 ± S.E.M. (mosquito larvae; left half of Table 2): 2.0 ± 0.36 mM
- Weight Gain [1]: 174.1 mg
- Weight mg ± S.E.M. End [1]: 209.7 ± 12 mg
- Trypsin μg ± S.E.M. (trypsin biosynthesis): 2.4 ± 0.3 µg
- Inhibition (% ± S.E.M.) of trypsin (trypsin biosynthesis): 5 ± 0.6%
- Number of Dead Larvae [2]: 0
- Weight (mg) ± S.E.M. [2]: 141 ± 9 mg
- Weight Reduction (%) ± S.E.M. [2]: 7 ± 0.4%

Molecule: YSPAP [Compound 18, YSPAP]
- LD50 ± S.E.M. (mosquito larvae; left half of Table 2): 1.4 ± 0.03 mM
- reduction in larval weight [1]: reduction
- Weight Gain [1]: 151 mg
- Weight mg ± S.E.M. End [1]: 188 ± 10.6 mg
- reduction in trypsin biosynthesis (trypsin biosynthesis): reduction
- Trypsin μg ± S.E.M. (trypsin biosynthesis): 2.0 ± 0.2 µg
- Inhibition (% ± S.E.M.) of trypsin (trypsin biosynthesis): 19 ± 2%
- Number of Dead Larvae [2]: 0
- Weight (mg) ± S.E.M. [2]: 168 ± 11 mg
- Weight Reduction (%) ± S.E.M. [2]: 0%

Molecule: YFPAP [Compound 11, YFPAP]
- LD50 ± S.E.M. (mosquito larvae; left half of Table 2): 0.64 ± 0.03 mM

Molecule: YDFAP [Compound 14, YDFAP]
- LD50 ± S.E.M. (mosquito larvae; left half of Table 2): 0.74 ± 0.13 mM
- reduction in larval weight [1]: reduction
- Weight Gain [1]: 164 mg
- Weight mg ± S.E.M. End [1]: 201 ± 12 mg
- reduction in trypsin biosynthesis (trypsin biosynthesis): reduction
- Trypsin μg ± S.E.M. (trypsin biosynthesis): 2.1 ± 0.2 µg
- Inhibition (% ± S.E.M.) of trypsin (trypsin biosynthesis): 19 ± 1.5%
- reduction in weight [2]: 26%
- Number of Dead Larvae [2]: 1
- Weight (mg) ± S.E.M. [2]: 121 ± 7 mg
- Weight Reduction (%) ± S.E.M. [2]: 26 ± 1.5%

Molecule: YAPAP [Compound 8, YAPAP]
- LD50 ± S.E.M. (mosquito larvae; left half of Table 2): 0.54 ± 0.13 mM

Molecule: DPA [Compound 23]
- LD50 ± S.E.M. (mosquito larvae; right half of Table 2): 0.4 ± 0.03 Mm

Molecule: ADP [Compound 40]
- LD50 ± S.E.M. (mosquito larvae; right half of Table 2): >6.6 Mm

Molecule: YDPGP [Compound 16, YDPGP]
- LD50 ± S.E.M. (mosquito larvae; left half of Table 2): 1.1 ± 0.18 mM
- Weight Gain [1]: 163.1 mg
- Weight mg ± S.E.M. End [1]: 199.8 ± 11 mg
- Trypsin μg ± S.E.M. (trypsin biosynthesis): 2.1 ± 0.1 µg
- Inhibition (% ± S.E.M.) of trypsin (trypsin biosynthesis): 17 ± 1%
- Number of Dead Larvae [2]: 2
- Weight (mg) ± S.E.M. [2]: 153 ± 10 mg
- Weight Reduction (%) ± S.E.M. [2]: 6 ± 0.4%

Molecule: PAA [Compound 37]
- LD50 ± S.E.M. (mosquito larvae; right half of Table 2): 2.4 ± 0.34 Mm

Molecule: FDPAP [Compound 5, FDPAP]
- LD50 ± S.E.M. (mosquito larvae; left half of Table 2): 0.37 ± 0.15 mM

Molecule: YDAAP [Compound 15, YDAAP]
- LD50 ± S.E.M. (mosquito larvae; left half of Table 2): 1.0 ± 0.18 mM
- reduction in larval weight [1]: reduction
- Weight Gain [1]: 179 mg
- Weight mg ± S.E.M. End [1]: 217 ± 9.5 mg
- reduction in trypsin biosynthesis (trypsin biosynthesis): reduction
- Trypsin μg ± S.E.M. (trypsin biosynthesis): 2.1 ± 0.2 µg
- Inhibition (% ± S.E.M.) of trypsin (trypsin biosynthesis): 17 ± 1.6%
- reduction in weight [2]: 18%
- Number of Dead Larvae [2]: 0
- Weight (mg) ± S.E.M. [2]: 133 ± 7 mg
- Weight Reduction (%) ± S.E.M. [2]: 18 ± 1%

Molecule: AAP [Compound 29]
- LD50 ± S.E.M. (mosquito larvae; right half of Table 2): 1.08 ± 0.07 Mm

Molecule: C[C@H](NC(=O)[C@@H]1CCCN1C(=O)[C@@H](CC(=O)O)NC(=O)[C@@H](N)Cc1ccc(O)cc1)C(=O)N1CCC[C@H]1C(=O)O [Compound 17, Y(D)DPAP] (H-Y[dD]PAP-OH; N-terminus and C-terminus assumed)
- Weight Gain [1]: 153 mg
- Weight mg ± S.E.M. End [1]: 188 ± 12 mg
- Trypsin μg ± S.E.M. (trypsin biosynthesis): 2.1 ± 0.2 µg
- Inhibition (% ± S.E.M.) of trypsin (trypsin biosynthesis): 15 ± 1.3%
- Number of Dead Larvae [2]: 1
- Weight (mg) ± S.E.M. [2]: 152 ± 27 mg
- Weight Reduction (%) ± S.E.M. [2]: 7 ± 1%

Molecule: PAP [Compound 38]
- LD50 ± S.E.M. (mosquito larvae; right half of Table 2): 3.17 ± 0.14 Mm

Molecule: MPDYPPPPP [Compound 2, MPDYP5]
- LD50 ± S.E.M. (mosquito larvae; left half of Table 2): >3.0 mM

Molecule: FDP [Compound 33]
- LD50 ± S.E.M. (mosquito larvae; right half of Table 2): 1.98 ± 0.6 Mm

Molecule: DAA [Compound 25]
- LD50 ± S.E.M. (mosquito larvae; right half of Table 2): 0.91 ± 0.06 Mm

Molecule: N[C@@H](Cc1ccc(O)cc1)C(=O)N[C@H](CC(=O)O)C(=O)N1CCC[C@H]1C(=O)O [Compound 22, Y(D)DP] (H-Tyr-[dD]-Pro-OH; N-terminus and C-terminus assumed)
- LD50 ± S.E.M. (mosquito larvae; left half of Table 2): 0.28 ± 0.01 mM

Molecule: YDPAL [Compound 7, YDPAL]
- LD50 ± S.E.M. (mosquito larvae; left half of Table 2): 0.52 ± 0.03 mM

Molecule: YAP [Compound 36]
- LD50 ± S.E.M. (mosquito larvae; right half of Table 2): 2.3 ± 0.5 Mm

Molecule: YDLAP [Compound 13, YDLAP]
- LD50 ± S.E.M. (mosquito larvae; left half of Table 2): 0.6 ± 0.05 mM

Molecule: FAP [Compound 39]
- LD50 ± S.E.M. (mosquito larvae; right half of Table 2): 3.8 ± 0.23 Mm

Molecule: YDPFP [Compound 20, YDPFP]
- LD50 ± S.E.M. (mosquito larvae; left half of Table 2): 1.7 ± 0.4 mM

Molecule: YDA [Compound 32]
- LD50 ± S.E.M. (mosquito larvae; right half of Table 2): 1.6 ± 0.13 Mm

Molecule: YDP [Compound 34]
- LD50 ± S.E.M. (mosquito larvae; right half of Table 2): 2.3 ± 0.4 Mm
- Weight Gain [1]: 186.3 mg
- Weight mg ± S.E.M. End [1]: 223.4 ± 16 mg
- Trypsin μg ± S.E.M. (trypsin biosynthesis): 2.1 ± 0.3 µg
- Inhibition (% ± S.E.M.) of trypsin (trypsin biosynthesis): 19 ± 3.2%
- Number of Dead Larvae [2]: 0
- Weight (mg) ± S.E.M. [2]: 157 ± 10 mg
- Weight Reduction (%) ± S.E.M. [2]: 4 ± 0.2%

Molecule: DYP [Compound 31]
- LD50 ± S.E.M. (mosquito larvae; right half of Table 2): 1.27 ± 0.17 Mm
- Weight Gain [1]: 180.5 mg
- Weight mg ± S.E.M. End [1]: 216.7 ± 13 mg
- Trypsin μg ± S.E.M. (trypsin biosynthesis): 2.2 ± 0.3 µg
- Inhibition (% ± S.E.M.) of trypsin (trypsin biosynthesis): 14 ± 1.8%
- Number of Dead Larvae [2]: 1
- Weight (mg) ± S.E.M. [2]: 149 ± 9 mg
- Weight Reduction (%) ± S.E.M. [2]: 9 ± 0.5%

Molecule: (D)YDP [Compound 24]
- LD50 ± S.E.M. (mosquito larvae; right half of Table 2): 0.51 ± 0.05 Mm

Molecule: FSP [Compound 35]
- LD50 ± S.E.M. (mosquito larvae; right half of Table 2): 2.3 ± 0.13 Mm

Molecule: YDPLP [Compound 6, YDPLP]
- LD50 ± S.E.M. (mosquito larvae; left half of Table 2): 1.5 ± 0.04 mM

Molecule: YDG [Compound 26]
- LD50 ± S.E.M. (mosquito larvae; right half of Table 2): 0.95 ± 0.11 Mm

Molecule: YNPAP [Compound 9, YNPAP]
- LD50 ± S.E.M. (mosquito larvae; left half of Table 2): 0.55 ± 0.03 mM

Molecule: YSF [Compound 30]
- LD50 ± S.E.M. (mosquito larvae; right half of Table 2): 1.08 ± 0.12 Mm
